Results from patent US20190125669A1, “SYSTEMS AND METHODS FOR STEROIDAL GELS” (Children's Medical Center Corporation, priority 2016, published 2019).
Entries after “also recorded” stand apart in the source; their conditions may differ. Structures can show the parent of a compound that is named as a salt.

Key:
[1] = Gelation of steroid drugs and alkaline-earth metal ion; assay type: physicochemical; set-up: key: L indicates that a liquid was formed; P indicates that a precipitate was formed; H indicates that a hydrogel was formed; L/H indicates that a mixture of a hydrogel and a liquid was formed; P->H indicates that a precipitate formed initially which converted to a hydrogel overnight; details: molar ratio steroid drug:metal ion 1:1
Description: The molar ratio of the steroid drug to the alkaline earth metal ion was 1:1 for all of the above samples.
Preparation of hydrogel. […] To form the DexP-hydrogel containing bupivacaine chlorhydrate (BPV), a DexP aqueous solution (100 mM) was added to a mixture of bupivacaine (10 mg/mL; approx. 30.8 mM) and Ca^2+ (100 mM) in a volume ratio of 1:2:1.

sciatic nerve = experiment: Sciatic nerve blockade, sensory (modified hotplate test); assay type: in vivo, rats; details: 0.3 mL at the sciatic nerve; bupivacaine 5 mg/mL (15.4 mM); DexP 25 mM where present; mean+/−SD
Description: Sciatic nerve blockade. Under brief isoflurane-oxygen anesthesia, the animals were injected with 0.3 mL of test material using a 23 G needle, which was introduced postero-medial to the greater trochanter until contact with bone.
Sensory nerve block was assessed by a modified hotplate test, as reported previously. The plantar surface of the rat's hind paw was placed on a pre-heated hot plate at 56° C. The time (termed thermal latency) that the animal would leave its hindpaw on the hotplate was recorded. Longer latencies reflected deeper degrees of local anesthesia. Pristine animals have latencies of about 2 s. After 12 s, the hindpaw was removed from the hotplate by the investigator to avoid tissue thermal injury or the development of hyperalgesia. Measurements were repeated 3 times at each timepoint. The duration of block was calculated as the time required for thermal latency to return to a value of 7 s from a higher value; 7 s is the midpoint between a baseline thermal latency of 2 seconds in adult rats, and a maximal latency of 12 s.

[2] = system: sciatic nerve and surrounding tissues; experiment: Histology: myotoxicity and inflammation scores; assay type: in vivo, rats; details: for Inflammation (range 0-4) / Myotoxicity (range 0-6): median with 25th and 75th percentiles, bupivacaine 5.0 mg/mL
Description: 4 or 14 days after injection (n=6 at each time point), the sciatic nerve and surrounding tissues were harvested and processed for histology by hematoxylin-eosin staining (FIG. 6, Table 2). Overall, tissue reaction to all formulations was relatively benign.
Histology. Rats were euthanized by carbon dioxide 4 days or 14 days after injection. The nerve and surrounding tissue were harvested and underwent standard procedures to produce hematoxylin and eosin-stained slides. The samples were scored for inflammation (0-4) and myotoxicity (0-6). The inflammation score was a subjective quantification of severity, where 0 was normal and 4 was severe inflammation. The myotoxicity score was determined by the nuclear internalization and regeneration of myocytes, two representative characteristics of local anesthetics myotoxicity. Nuclear internalization was characterized by myocytes having nuclei located away from its usual location at the periphery of the cell. Regeneration was characterized by the presence of shrunken myocytes with basophilic cytoplasm. The scoring scale was as follows: 0=normal; 1=per fascicular internalization; 2=deep internalization (>5 cell layers); 3=perifascicular regeneration; 4=deep tissue regeneration (>5 cell layers); 5=hemefascicular regeneration; 6=holofascicular regeneration.

C2C12 cells = experiment: Cell viability (MTS assay, Transwell); assay type: cell-based; details: 24 h exposure, hydrogels [DexP]=25 mM
Description: The cytotoxicity of DexP-hydrogels ([DexP]:[Ca^2+]=2:1, 1:1, or 2:3), and free DexP were assessed by exposing C2C12 cells to them for 24 h in a Transwell® system where the gels were separated from the cells by a permeable membrane (FIG. 12) and measuring cell viability by MTS (3-(4,5-dimethylthiazol-2-yl)-5-(3-carboxymethoxyphenyl)-2-(4-sulfophenyl)-2H-tetrazolium) assay. […] The concentration of free DexP in the cell culture media incubated with the DexP-hydrogel ([DexP]:[Ca^2+]=2:1) for 24 h was 2.5 mg/mL (calculated from the release profile in FIG. 3), and the reduction of cell viability in that group was similar to that from 2.5 mg/mL of free DexP (p=0.31, p<0.005 compared to untreated cells). 25 mM DexP-hydrogels with the ratio [DexP]:[Ca^2+]=1:1 were used in subsequent experiments.
Cell viability. In vitro cell viability in the presence of DexP hydrogels was investigated in C2C12 cells (American Type Culture Collection, Manassas, Va.). In brief, C2C12 cells were grown and maintained in DMEM with 20% FBS and 1% Penicillin Streptomycin (Invitrogen, Waltham, Mass.) at 37° C. in 5% CO2. Cells were seeded into the lower chamber of 24-well Transwell® plates (Costar 3470, pore size 0.4 micrometers, Corning Incorporated, Corning, N.Y.) at 50,000 cells/mL in DMEM with 2% horse serum and 1% penicillin streptomycin and incubated for 14 days to allow differentiation into myotubes. […]

Gelation ([1]; Ba^2+ concentration 2.5)	Gelation ([1]; Ba^2+ concentration 6.25)	Gelation ([1]; Ba^2+ concentration 12.5)	Gelation ([1]; Ba^2+ concentration 25)	Gelation ([1]; Ca^2+ concentration 2.5)	Gelation ([1]; Ca^2+ concentration 6.25)	Gelation ([1]; Ca^2+ concentration 12.5)	Gelation ([1]; Ca^2+ concentration 25)	Compound	Duration of sensory blockade (sciatic nerve)	Inflammation (range 0-4) ([2]; 4 days)	Myotoxicity (range 0-6) ([2]; 4 days)	Inflammation (range 0-4) ([2]; 14 days)	Myotoxicity (range 0-6) ([2]; 14 days)	Tissue reaction (histology, H&E) ([2]; day 4 after injection at the sciatic nerve, listed as free bupivacaine solution, hydrochloride)	Tissue reaction (histology, H&E) ([2]; day 14 after injection at the sciatic nerve)	Cell viability / cytotoxicity (C2C12 cells)
L	L	P−>H	P−>H	L/H	L/H	H	H	C[C@H]1C[C@H]2[C@@H]3CCC4=CC(=O)C=C[C@]4(C)[C@@]3(F)[C@@H](O)C[C@]2(C)[C@@]1(O)C(=O)COP(=O)(O)O [Betamethasone phosphate, betamethasone phosphate disodium]								
								CCCCN1CCCCC1C(=O)Nc1c(C)cccc1C (centres unmarked) [Bupivacaine solution, bupivacaine hydrochloride]	126 ± 38 min	2.0 (1.0-2.5)	3.0 (3.0-3.75)	1.0 (0.5-1.0)	1.0 (0.5-1.0)	inflammatory infiltrate consisting primarily of macrophages with lymphocytes and occasional neutrophils; also recorded: evidence of myotoxicity	diminished compared to reaction at day 4, almost back to normal	
L	L	P−>H	P−>H	L/H	L/H	H	H	C[C@@H]1C[C@H]2[C@@H]3CCC4=CC(=O)C=C[C@]4(C)[C@@]3(F)[C@@H](O)C[C@]2(C)[C@@]1(O)C(=O)COP(=O)(O)O [Dexamethasone phosphate, dexamethasone phosphate disodium]								concentration-dependent reduction of cell viability
L	L	P−>H	P−>H	L/H	L/H	H	H	hydrocortisone phosphate disodium								
